Experimental data published in the supplement of paper PMC12076712.

Key:
Assay in all cases: pIC50, kinobeads binding competition
BMPR1B = BMPR1B (UniProt O00238); settings: cell material: Lysate mix
Summary of the method: (§1)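 Fold changes relative to vehicle, from biological duplicates, were fitted with logistic dose-response models in the R drc package to give pIC50. These fold changes came from TMT10 LC-MS/MS quantification of digested Kinobeads-bound proteins. Compound was applied at nine concentrations (top 30 μM) either to live Jurkat cells in 1:4 steps for 60 min at 37 °C before lysis, or to Jurkat lysate or a 1:1:1:1 HEK293/K-562/HepG2/placenta lysate mix in 1:5 steps for 60 min at 4 °C.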

EPHB1 = target: T1, EPHB1 (UniProt P54762); settings: cell material: Lysate mix
T1 sequence (whole entry): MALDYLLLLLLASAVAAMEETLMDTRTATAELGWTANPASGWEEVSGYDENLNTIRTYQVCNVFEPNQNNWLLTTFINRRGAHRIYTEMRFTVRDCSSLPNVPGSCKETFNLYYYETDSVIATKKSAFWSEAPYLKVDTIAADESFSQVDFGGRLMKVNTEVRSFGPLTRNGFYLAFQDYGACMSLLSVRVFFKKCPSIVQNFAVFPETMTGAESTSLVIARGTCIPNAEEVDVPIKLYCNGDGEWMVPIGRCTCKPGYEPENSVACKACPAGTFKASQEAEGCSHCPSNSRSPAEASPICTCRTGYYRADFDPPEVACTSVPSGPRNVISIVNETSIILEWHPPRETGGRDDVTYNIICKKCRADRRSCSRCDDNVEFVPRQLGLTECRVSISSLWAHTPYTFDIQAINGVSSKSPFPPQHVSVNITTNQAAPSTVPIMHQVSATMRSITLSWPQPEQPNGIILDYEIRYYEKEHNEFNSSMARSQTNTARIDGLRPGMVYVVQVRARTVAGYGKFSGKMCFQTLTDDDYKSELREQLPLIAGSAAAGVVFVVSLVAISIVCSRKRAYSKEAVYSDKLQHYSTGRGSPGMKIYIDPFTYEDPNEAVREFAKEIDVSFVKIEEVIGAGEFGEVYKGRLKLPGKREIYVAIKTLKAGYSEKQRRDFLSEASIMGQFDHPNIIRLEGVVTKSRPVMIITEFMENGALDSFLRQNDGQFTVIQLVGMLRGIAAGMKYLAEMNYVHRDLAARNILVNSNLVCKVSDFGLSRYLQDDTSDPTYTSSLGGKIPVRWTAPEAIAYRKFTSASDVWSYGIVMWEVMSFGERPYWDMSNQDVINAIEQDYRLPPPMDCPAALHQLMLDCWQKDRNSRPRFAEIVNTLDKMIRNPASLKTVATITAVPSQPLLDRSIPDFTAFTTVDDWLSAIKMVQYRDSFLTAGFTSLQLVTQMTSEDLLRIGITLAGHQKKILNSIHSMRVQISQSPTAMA
Summary of the method: as §1

LYN = LYN (UniProt P07948)
Sequence of LYN (P07948 whole entry, looked up): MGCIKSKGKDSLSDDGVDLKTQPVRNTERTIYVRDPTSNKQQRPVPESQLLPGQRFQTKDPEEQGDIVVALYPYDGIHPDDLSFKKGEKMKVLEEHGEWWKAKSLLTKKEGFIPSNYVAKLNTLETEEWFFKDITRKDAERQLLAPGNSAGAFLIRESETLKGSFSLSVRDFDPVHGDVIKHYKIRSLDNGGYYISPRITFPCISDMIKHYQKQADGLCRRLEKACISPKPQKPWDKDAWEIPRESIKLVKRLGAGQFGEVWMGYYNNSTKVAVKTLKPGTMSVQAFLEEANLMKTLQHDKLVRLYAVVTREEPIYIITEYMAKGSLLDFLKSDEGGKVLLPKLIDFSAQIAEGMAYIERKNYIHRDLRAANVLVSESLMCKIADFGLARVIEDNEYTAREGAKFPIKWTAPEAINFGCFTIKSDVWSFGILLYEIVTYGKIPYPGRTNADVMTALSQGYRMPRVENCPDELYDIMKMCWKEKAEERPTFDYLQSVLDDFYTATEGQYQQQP
Summary of the method: as §1

TAOK1 = target: T2, TAOK1 (UniProt Q7L7X3)
T2 sequence (whole entry): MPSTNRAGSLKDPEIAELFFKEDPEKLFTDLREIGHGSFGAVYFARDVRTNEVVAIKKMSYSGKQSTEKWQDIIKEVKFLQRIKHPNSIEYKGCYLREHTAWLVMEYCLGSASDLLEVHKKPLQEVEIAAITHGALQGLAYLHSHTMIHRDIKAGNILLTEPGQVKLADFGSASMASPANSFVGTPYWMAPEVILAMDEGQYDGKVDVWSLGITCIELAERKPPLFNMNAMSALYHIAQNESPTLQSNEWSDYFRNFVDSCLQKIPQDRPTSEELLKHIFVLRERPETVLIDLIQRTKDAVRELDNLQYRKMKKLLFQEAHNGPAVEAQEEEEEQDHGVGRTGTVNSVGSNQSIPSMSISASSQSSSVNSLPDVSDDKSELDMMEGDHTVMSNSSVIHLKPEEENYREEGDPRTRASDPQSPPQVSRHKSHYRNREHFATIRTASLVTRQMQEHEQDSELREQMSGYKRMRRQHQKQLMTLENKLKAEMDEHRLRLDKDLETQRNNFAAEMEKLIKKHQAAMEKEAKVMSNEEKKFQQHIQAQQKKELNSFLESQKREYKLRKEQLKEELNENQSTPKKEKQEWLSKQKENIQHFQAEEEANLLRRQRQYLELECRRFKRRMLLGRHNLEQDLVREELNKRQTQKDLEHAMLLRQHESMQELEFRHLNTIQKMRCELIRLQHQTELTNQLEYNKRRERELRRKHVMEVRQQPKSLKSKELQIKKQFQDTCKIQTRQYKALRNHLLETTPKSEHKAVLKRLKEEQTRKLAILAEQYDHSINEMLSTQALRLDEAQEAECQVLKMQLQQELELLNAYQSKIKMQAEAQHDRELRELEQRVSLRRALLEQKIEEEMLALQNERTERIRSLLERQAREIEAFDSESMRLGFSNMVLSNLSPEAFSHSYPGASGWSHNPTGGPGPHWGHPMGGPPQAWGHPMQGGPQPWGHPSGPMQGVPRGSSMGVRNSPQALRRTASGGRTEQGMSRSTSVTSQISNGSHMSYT
Summary of the method: as §1

UniProt P09619 = settings: cell material: Lysate mix
Sequence of UniProt P09619 (P09619 whole entry): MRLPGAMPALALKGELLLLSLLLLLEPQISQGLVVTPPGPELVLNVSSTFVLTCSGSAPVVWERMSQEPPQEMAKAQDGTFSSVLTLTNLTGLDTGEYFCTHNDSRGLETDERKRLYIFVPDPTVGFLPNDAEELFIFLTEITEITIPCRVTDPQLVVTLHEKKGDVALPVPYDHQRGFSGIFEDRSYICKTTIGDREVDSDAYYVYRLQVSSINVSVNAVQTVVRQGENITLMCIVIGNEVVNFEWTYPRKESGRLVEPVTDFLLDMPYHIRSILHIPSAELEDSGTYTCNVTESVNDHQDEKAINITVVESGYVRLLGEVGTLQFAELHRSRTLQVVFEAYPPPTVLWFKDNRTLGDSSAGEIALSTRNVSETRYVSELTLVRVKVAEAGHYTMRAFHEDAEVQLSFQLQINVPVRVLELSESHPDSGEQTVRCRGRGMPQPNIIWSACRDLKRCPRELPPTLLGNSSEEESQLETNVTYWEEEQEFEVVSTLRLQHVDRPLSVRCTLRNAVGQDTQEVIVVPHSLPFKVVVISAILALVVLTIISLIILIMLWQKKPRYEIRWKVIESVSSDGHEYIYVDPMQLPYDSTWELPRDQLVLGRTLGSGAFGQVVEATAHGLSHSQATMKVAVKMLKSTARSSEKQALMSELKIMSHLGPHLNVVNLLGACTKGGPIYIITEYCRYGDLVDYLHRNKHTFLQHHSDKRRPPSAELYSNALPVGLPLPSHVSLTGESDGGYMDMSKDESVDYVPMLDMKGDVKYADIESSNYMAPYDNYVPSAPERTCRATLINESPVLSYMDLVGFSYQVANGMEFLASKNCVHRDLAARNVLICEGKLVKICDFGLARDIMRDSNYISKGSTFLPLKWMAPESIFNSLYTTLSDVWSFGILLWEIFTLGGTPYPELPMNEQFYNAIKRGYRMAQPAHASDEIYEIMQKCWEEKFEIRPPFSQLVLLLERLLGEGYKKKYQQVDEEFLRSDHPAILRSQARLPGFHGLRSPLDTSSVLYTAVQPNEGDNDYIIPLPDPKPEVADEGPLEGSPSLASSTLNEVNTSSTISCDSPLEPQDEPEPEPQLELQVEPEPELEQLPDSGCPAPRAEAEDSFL
Summary of the method: as §1

UniProt P78356 = target: T3, UniProt P78356
T3 sequence (whole entry): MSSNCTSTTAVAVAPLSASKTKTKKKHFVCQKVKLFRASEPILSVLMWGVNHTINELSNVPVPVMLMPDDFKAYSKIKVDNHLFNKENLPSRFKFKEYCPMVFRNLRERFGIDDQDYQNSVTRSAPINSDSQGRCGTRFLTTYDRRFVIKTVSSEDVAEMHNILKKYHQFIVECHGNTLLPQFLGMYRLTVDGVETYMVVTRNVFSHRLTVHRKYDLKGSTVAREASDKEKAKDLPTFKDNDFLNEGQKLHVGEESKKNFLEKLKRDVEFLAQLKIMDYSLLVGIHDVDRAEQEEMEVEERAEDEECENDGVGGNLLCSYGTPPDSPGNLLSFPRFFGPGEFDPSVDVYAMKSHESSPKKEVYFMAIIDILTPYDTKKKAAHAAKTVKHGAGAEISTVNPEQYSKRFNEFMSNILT
Summary of the method: as §1

Sequence of BMPR1B (O00238 whole entry): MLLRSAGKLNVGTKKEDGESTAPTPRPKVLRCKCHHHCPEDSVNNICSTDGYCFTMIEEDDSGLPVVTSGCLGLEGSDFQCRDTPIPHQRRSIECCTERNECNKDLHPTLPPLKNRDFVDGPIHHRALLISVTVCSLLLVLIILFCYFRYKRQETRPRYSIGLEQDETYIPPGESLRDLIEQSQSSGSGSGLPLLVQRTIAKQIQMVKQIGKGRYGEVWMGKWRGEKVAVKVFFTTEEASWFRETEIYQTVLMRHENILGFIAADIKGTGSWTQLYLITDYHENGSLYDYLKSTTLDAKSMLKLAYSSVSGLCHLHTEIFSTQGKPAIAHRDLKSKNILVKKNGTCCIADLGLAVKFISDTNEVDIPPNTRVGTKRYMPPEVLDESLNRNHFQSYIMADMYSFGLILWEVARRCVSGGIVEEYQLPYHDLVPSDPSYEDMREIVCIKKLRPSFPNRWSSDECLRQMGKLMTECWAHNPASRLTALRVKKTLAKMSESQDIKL

| pIC50 (BMPR1B) | pIC50 (EPHB1) | pIC50 (LYN; cell material: Lysate mix) | pIC50 (TAOK1; cell material: Lysate mix) | pIC50 (UniProt P09619) | pIC50 (UniProt P78356; cell material: Lysate mix) | Structure (SMILES) | pIC50 (LYN; cell material: Jurkat lysate) | pIC50 (TAOK1; cell material: Jurkat cells) | pIC50 (TAOK1; cell material: Jurkat lysate) | pIC50 (UniProt P78356; cell material: Jurkat lysate) |
| --- | --- | --- | --- | --- | --- | --- | --- | --- | --- | --- |
| < 4.52 | < 4.52 | 5.54 | < 4.52 | < 4.52 | < 4.52 | C#CCNC(=O)c1cc(Nc2cc(C)[nH]n2)nc(N2CCN(Cc3ccc(S(=O)(=O)F)cc3)CC2)n1 |  |  |  |  |
| < 4.52 | < 4.52 | < 4.52 | 6.1 | < 4.52 | < 4.52 | O=C(NCCNC(=O)c1cc(Nc2cc(C3CC3)[nH]n2)nc(N2CCN(Cc3ccc(S(=O)(=O)F)cc3)CC2)n1)OC1CC/C=C/CCC1 (centres undefined) | < 4.52 | 5.96 | 5.65 | < 4.52 |
| 5.08 | < 4.52 | 5.92 | < 4.52 | < 4.52 | < 4.52 | CCNC(=O)c1cc(Nc2cc(C3CC3)[nH]n2)nc(N2CCN(Cc3ccc(S(=O)(=O)F)cc3)CC2)n1 |  |  |  |  |
| < 4.52 | < 4.52 | 5.98 | < 4.52 | < 4.52 | < 4.52 | CCNC(=O)c1cc(Nc2cc(C)[nH]n2)nc(N2CCN(Cc3ccc(S(=O)(=O)F)cc3)CC2)n1 |  |  |  |  |
| < 4.52 | < 4.52 | < 4.52 | 5.87 | < 4.52 | < 4.52 | Cc1cc(Nc2cc(C(=O)NCCNC(=O)OC3CC/C=C/CCC3)nc(N3CCN(Cc4ccc(S(=O)(=O)F)cc4)CC3)n2)n[nH]1 (centres undefined) |  |  |  |  |

| Structure (SMILES) | pIC50 (BMPR1B) | pIC50 (EPHB1) | pIC50 (LYN; cell material: Lysate mix) | pIC50 (TAOK1; cell material: Lysate mix) | pIC50 (UniProt P09619) | pIC50 (UniProt P78356; cell material: Lysate mix) | pIC50 (LYN; cell material: Jurkat lysate) | pIC50 (TAOK1; cell material: Jurkat cells) | pIC50 (TAOK1; cell material: Jurkat lysate) | pIC50 (UniProt P78356; cell material: Jurkat lysate) |
| --- | --- | --- | --- | --- | --- | --- | --- | --- | --- | --- |
| C#CCNC(=O)c1cc(Nc2cc(C3CC3)[nH]n2)nc(N2CCN(Cc3ccc(S(=O)(=O)F)cc3)CC2)n1 | 4.78 | < 4.52 | 6.03 | < 4.52 | < 4.52 | < 4.52 | 5.41 | 5.6 | < 4.52 | < 4.52 |
